Laboratory results reported in PubChem BioAssay (NCI).
Values joined by “and” are separate entries in the source; they are usually repeats but may differ in a detail not shown here. Equal values may be shown once.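 Five compound concentrations were applied to cells in 96-well plates for 48 hours; endpoints were derived by simple linear interpolation of the resulting dose-response curve. GI50 = concentration required for 50% inhibition of growth. TGI: concentration producing complete growth inhibition.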

Columns and labels:
Test in all cases: DTP human tumour cell line panel, 48 h
[1] = system: KM12 colon
[2] = system: LOX IMVI melanoma
[3] = system: HT29 colon
[4] = system: HS 578T breast
[5] = system: MOLT-4 leukemia
[6] = system: HOP-92 NSCLC
[7] = system: PC-3 prostate
[8] = system: 786-0 renal
[9] = system: SF-539 CNS
[10] = system: SK-OV-3 ovarian

SMILES	TGI [1]	TGI [2]	TGI [3]	TGI [4]	TGI [5]	TGI [6]	TGI [7]	TGI [8]	TGI [9]	GI50 [1]	GI50 [2]	GI50 [3]	GI50 [4]	GI50 [10]	TGI [10]	GI50 [5]	GI50 [6]	GI50 [7]	GI50 [8]	GI50 [9]
NCCC(=O)NC(Cc1cnc[nH]1)C(=O)O (stereo not drawn)	> 100 µM	> 100 µM	> 100 µM	> 100 µM	> 100 µM	> 100 µM	> 100 µM	> 100 µM	> 100 µM											
Nc1n[nH]c2ccc([C@@H]3Nc4cc5[nH]ncc5cc4[C@H]4C5CCC(C5)[C@@H]34)cc12 (stereo partly drawn)	19.1 µM	74.8 µM	> 44.3 µM	> 100 µM	> 100 µM	> 46.2 µM	> 41.9 µM	> 66.7 µM	3.17 µM	0.393 µM	0.659 µM	0.367 µM	0.369 µM	16 µM	> 100 µM	0.442 µM	4.59 µM	0.365 µM	0.709 µM	0.269 µM
COc1cc(C2CC(=O)Nc3c2cc(Br)c2ccccc32)cc(Br)c1OC (stereo not drawn)		> 100 µM	4.21 µM	> 54.2 µM	> 47.6 µM	7.07 µM	> 100 µM	3.79 µM	> 58.6 µM		1.65 µM	0.514 µM	1.78 µM	1.76 µM	3.35 µM	2.78 µM	1 µM	2.62 µM	1.76 µM	3.27 µM
CCN(CC)C(=S)SSC(=S)N(CC)CC	30.7 µM and 28.2 µM	31.2 µM and 29.9 µM	31.5 µM and 35.5 µM	64 µM and 501 µM	46.6 µM and 48.5 µM	38.4 µM and 133 µM	41.2 µM and 72 µM	> 56.2 µM and 39.7 µM	38.6 µM and 37.1 µM	14.4 µM and 13.7 µM	14.4 µM and 12.8 µM	16.5 µM and 16.8 µM	20.9 µM and 105 µM	49.4 µM and 58.9 µM	173 µM	17.7 µM and 16 µM	15 µM and 40.4 µM	15.7 µM and 23.2 µM	24.1 µM and 18.6 µM	18.8 µM and 17.9 µM
CN(c1ccc(C#N)c(Cl)c1)C1CCC(NC(=O)c2ccc(N3CCN(C4CN(c5ccc6c(c5)C(=O)N(C5CCC(=O)NC5=O)C6=O)C4)CC3)cc2)CC1 (stereo not drawn)	> 100 µM	> 100 µM	> 100 µM	> 100 µM	> 100 µM	99.8 µM	> 100 µM	> 100 µM	> 100 µM	> 100 µM	> 100 µM	> 100 µM	> 100 µM	> 100 µM	> 100 µM	> 100 µM	10.2 µM	> 100 µM	> 100 µM	> 100 µM
COc1cc2c(cc1-c1coc3cc(OCC=C(C)C)ccc3c1=O)OCO2	52.4 µM	93.9 µM		> 100 µM	45.2 µM	> 100 µM	> 100 µM	61.8 µM	> 100 µM						> 100 µM					
CCOC1OC(=O)[C@H]2[C@@H]1[C@@H]1CC[C@H]2O1 (stereo partly drawn)	> 100 µM	> 100 µM	> 76.3 µM	> 100 µM	> 100 µM	> 100 µM	> 100 µM	> 100 µM	> 100 µM	> 76.2 µM	> 100 µM	24.8 µM	> 100 µM	> 100 µM	> 100 µM	> 100 µM	> 100 µM	> 100 µM	> 100 µM	> 100 µM
COc1cc2c(c(OC)c1OC)-c1c(cc3c(c1OC)OCO3)CC(C)C(C)(O)C2OC(=O)c1ccccc1 (stereo not drawn)	> 100 µM	> 100 µM	75.6 µM	> 100 µM	29.3 µM	73.7 µM	> 100 µM	> 100 µM	> 100 µM						> 100 µM					
CCN(CC)CCCC(C)Nc1c(-c2ccccc2)cnc2cc(Cl)ccc12 (stereo not drawn)	16 µM	5.84 µM	11.5 µM	24.7 µM	31.9 µM	23.7 µM	60.4 µM	20.6 µM	16.3 µM	4.19 µM	2.2 µM	2.74 µM	6.82 µM	15.3 µM	33.5 µM	4.38 µM	4.65 µM	14.9 µM	6.38 µM	4.36 µM
O=C(Nc1cnc(C(F)(F)F)cn1)c1cc(Cl)ccc1O	16.2 µM	1.75 µM	> 100 µM	26.4 µM	1.78 µM	0.621 µM	> 100 µM	15.9 µM	7.91 µM	0.343 µM	0.291 µM	2.56 µM	0.335 µM			0.352 µM	0.188 µM	0.311 µM	0.356 µM	0.294 µM
O=C1/C(=C/c2cccc(Br)c2)COc2ccc(O)c(O)c21	3.64 µM	2.04 µM	3.62 µM	7.53 µM	10.8 µM	7.21 µM	3.45 µM	4.1 µM	3.45 µM	1.48 µM	0.658 µM	1.83 µM	2.28 µM	3.12 µM	10.6 µM	0.927 µM	1.89 µM	0.79 µM	1.46 µM	1.58 µM
O=NN(CCCl)C(=O)NC1CCC(=O)NC1=O (stereo not drawn)	578 µM	279 µM	> 1250 µM	1100 µM	329 µM	377 µM	> 1250 µM	377 µM	309 µM						> 1010 µM					
Cc1ccc(Sc2oc(-c3ccc(C)cc3)nc2[P+](c2ccccc2)(c2ccccc2)c2ccccc2)cc1	1.3 µM	0.323 µM	1.15 µM	1.98 µM	1.11 µM	0.722 µM	1.34 µM	1.65 µM	1.53 µM	0.338 µM	0.166 µM	0.294 µM	0.378 µM	0.27 µM	1.1 µM	0.319 µM	0.178 µM	0.305 µM	0.379 µM	0.404 µM
Brc1cccc(-c2cc(-c3ccc4nccnc4c3)[nH]n2)c1	> 94.7 µM	> 250 µM	> 165 µM	> 250 µM	> 145 µM	> 250 µM	> 250 µM	> 250 µM	3.28 µM	0.153 µM	1.42 µM	0.174 µM	1.02 µM	0.845 µM	> 250 µM	1.52 µM	4.54 µM	0.68 µM	1.66 µM	0.764 µM
COc1cccc(C2C(C#N)=C(N)Oc3c2ccc2ccccc32)c1 (stereo not drawn)	2.26 µM	10.8 µM	4.71 µM	15.1 µM	17.8 µM	7.78 µM	15.5 µM	12.3 µM	0.0695 µM	< 0.0116 µM	< 0.0164 µM	0.0926 µM	< 0.0133 µM	0.0431 µM	18.3 µM	0.0409 µM	< 0.0271 µM	0.0119 µM	0.0364 µM	0.0166 µM
C=C1C(=O)O[C@H]2[C@H]1CC/C(CNC(=O)/C=C/c1ccccc1)=C\CC[C@@]1(C)O[C@@H]21	16.7 µM	2.29 µM	3.04 µM	37 µM	5.22 µM	3.38 µM	4.15 µM	3.69 µM	2.37 µM	4.94 µM	0.997 µM	0.754 µM	4.21 µM	13.2 µM	26 µM	1.47 µM	1.46 µM	1.92 µM	1.48 µM	0.964 µM
Cc1c2ccncc2c(C)c2c1c1cc(CO)ccc1n2C	20 µM	2.1 µM	1.78 µM	7.86 µM	2.13 µM	4.87 µM	1.39 µM	5.07 µM	4.2 µM	0.492 µM	0.449 µM	0.338 µM	0.96 µM	0.784 µM	3.71 µM	0.368 µM	0.636 µM	0.294 µM	0.596 µM	0.73 µM
O=[N+]([O-])c1ccc2c(Nc3ccccc3-c3ccccc3Nc3c4ccccc4nc4cc([N+](=O)[O-])ccc34)c3ccccc3nc2c1	36.9 µM	47.4 µM	26.7 µM	14.9 µM	50.4 µM	24.4 µM	6.61 µM	13.4 µM	39.5 µM						> 56.2 µM					
CCN(CC)C(=O)COc1cc2c(O)c3c(O)c(C)c4c(c13)C(=O)C(C)(OC=CC(OC)C(C)C(OC(C)=O)C(C)C(O)C(C)C(O)C(C)C=CC=C(C)C(=O)N2)O4 (stereo not drawn)	> 100 µM	> 100 µM	> 100 µM	> 100 µM	> 100 µM	> 100 µM	> 100 µM	> 100 µM							> 100 µM					
C=CCCCOC1[C@H](OCc2ccccc2)C(OCc2ccccc2)C(OC)O[C@@H]1CNC(=O)c1cccc(I)c1 (stereo partly drawn)	> 100 µM	> 100 µM	> 100 µM	> 100 µM	> 100 µM	> 100 µM	> 100 µM	> 100 µM	76.4 µM	6.49 µM	2.81 µM	4.54 µM	9.32 µM	5.45 µM	> 100 µM	1.9 µM	5.08 µM	2.19 µM	3.78 µM	4.38 µM
OCc1ccc(N2CCCC2)cc1Cl	> 100 µM	> 100 µM	76.4 µM	> 100 µM	> 100 µM	24.2 µM	> 100 µM	> 100 µM	> 100 µM	> 100 µM	> 86.9 µM	7.9 µM	> 50 µM	27.3 µM	> 90.6 µM	36.9 µM	2.22 µM	> 84.7 µM	27.5 µM	> 58.7 µM
COc1ccc2c(c1)/C(=C\c1c[nH]c3ccc(OC)cc13)C(=O)N2	10.8 µM	13.6 µM	14.9 µM	7.66 µM	8.14 µM	6.55 µM	16.3 µM	17.6 µM	15.6 µM	0.32 µM	3.25 µM	4.07 µM	2.33 µM	2.58 µM	8.64 µM	2.95 µM	1.48 µM	3.84 µM	5.35 µM	3.95 µM
N/C(=N\c1nc2ccccc2s1)NC(=NC1CCCCC1)NC1CCCCC1	3.78 µM	2.99 µM	3.66 µM	3.89 µM	5.45 µM		3.33 µM	3.23 µM	3.12 µM	1.94 µM	1.61 µM	1.63 µM	1.77 µM	1.84 µM	3.53 µM	1.98 µM		1.52 µM	1.65 µM	1.66 µM
COc1ccc(Oc2ccccc2NC(=O)CNC(=O)c2cccc3ccccc23)cc1	> 25 µM	> 25 µM	19.4 µM	> 25 µM	> 25 µM	> 25 µM	> 25 µM	> 25 µM		0.577 µM	1.34 µM	0.576 µM	1.71 µM	1.02 µM	> 25 µM	0.96 µM	> 25 µM	1.06 µM	1.14 µM	
Cc1cc(NC(=O)c2cnc(N3CCN(CCOCCOCCOCCOCCC(=O)N[C@H](C(=O)N4C[C@H](O)C[C@H]4C(=O)N[C@@H](C)c4ccc(-c5scnc5C)cc4)C(C)(C)C)CC3)cn2)c2ncccc2c1		3.39 µM	7.63 µM	9.17 µM	9.67 µM	9.37 µM	10.4 µM	> 100 µM	4.68 µM		1.84 µM	2.54 µM	2.59 µM	8.5 µM	> 100 µM	3.12 µM	2.3 µM	2.85 µM	4.61 µM	2.12 µM
CCOC(=O)C1=C(C)N2C(=NC3=C(CCC/C3=C\c3ccc(Cl)cc3)C2c2ccc(Cl)cc2)S1 (stereo not drawn)	3.68 µM	3.15 µM	5.92 µM	> 100 µM	9.27 µM		> 100 µM	4.74 µM	> 100 µM	1.93 µM	1.75 µM	2.35 µM	5.33 µM	6.68 µM	> 100 µM	3.06 µM		2.77 µM	2 µM	3.88 µM
CCN(C(=O)CN1CCN(c2cc3c(cc2F)c(=O)c(C(=O)O)cn3CC)CC1)c1nc(-c2ccccc2)cs1	> 100 µM	> 100 µM	> 100 µM	> 100 µM	> 100 µM	0.585 µM	> 100 µM	> 100 µM	> 100 µM	0.393 µM	0.325 µM	0.301 µM	0.842 µM			0.376 µM	0.23 µM	0.362 µM	0.384 µM	0.337 µM
